This is an account of results in US20140349943A1, “TOPICAL FORMULATIONS OF CHEMERIN C15 PEPTIDES FOR THE TREATMENT OF DERMATOLOGICAL CONDITIONS” (priority 2011, published 2014).

Test [1] has as its system IFNγ/LPS stimulated human macrophages. The test is described as follows: Cytokine secretion by IFNγ/LPS stimulated human macrophages (Luminex). Type of test: cell-based. From the text:
In this example, the ability of human chemerin C15 to inhibit secretion of cytokines from activated human macrophages was examined. For this experiment, the activity of the human chemerin C15 peptide […] (SEQ ID NO: 1) was compared to that of the human chemerin C17 peptide […] (SEQ ID NO: 25). The C15 and C17 peptides were synthesized by solid phase synthesis using BOP coupling of FMOC protected amino acids with final cleavage from the resin with TFA. Peptides were purified by reverse phase C18 chromatography using a water/acetonitrile gradient.
Human macrophages were derived from human CD14+ monocytes obtained from 3 donors. On Day 1, the isolated monocytes were thawed and seeded in triplicate for each group in 1 ml RPMI 1640 GlutaMAX™ media (supplemented with 10% FBS, 100 U/ml penicillin, 100 μg/ml streptomycin, 0.05 μM mercaptoethanol, 1% NEAA and 1% sodium pyruvate) per well of a 24 well cell culture dish at a cell concentration of 5×10^5 cells/ml. M-CSF was added to each well to give a final concentration of 25 ng/ml. Cells were grown for 7 days at 37° C. with 5% CO2 to differentiate the cells into macrophages. Media and M-CSF were replaced after 4 days.
Following differentiation, the media containing M-CSF was removed. The cells were washed and vehicle control, dexamethasone, C15 or C17 were added to the appropriate wells. The test peptides were dissolved in 50% DMSO/water prior to addition. C-15 (MW 1669; 16.7 mg/ml) was added to a final concentration of […] and C17 (MW 1904; 19.0 mg/ml) was added to a final concentration of 1 μM. Dexamethasone was added to a final concentration of 1 μM. Following addition to the wells, the plates were incubated at 37° C. with 5% CO2 for 1 hour. An equal volume of complete media was added to the non-treated wells. Control or test treatments were maintained at the correct concentration throughout the assay.
IFNγ (final concentration 20 ng/ml) was then added to the appropriate wells. Following IFNγ addition, the plates were incubated at 37° C. with 5% CO2 for 4 hours. The concentration of vehicle control, test treatments or dexamethasone was maintained during IFNγ stimulation. LPS (final concentration 10 ng/ml) was then added to the appropriate wells. Following LPS addition, the plates were incubated at 37° C. with 5% CO2 for 15 hours. After 6 hours, ˜60 μl of culture supernatant was removed from all wells and stored at −80° C. for analysis. The concentration of vehicle control, test treatments or dexamethasone was maintained during LPS stimulation.
At 15 hours post LPS stimulation, the remaining cell culture supernatant was harvested and stored at −80° C. until assayed. The concentration of vehicle control, test treatments or dexamethasone was maintained until culture termination.
Cell culture supernatants taken at 6 hours and 15 hours post LPS addition were assayed for the production of RANTES, TNFα, IL-1β, IL-6, IL-10, IL-12p40 (subunit common to IL-12 and IL-23) and IL-15 (negative control) using Luminex® technology (Procarta human cytokine kit; Panomics) following the manufacturer's instructions.
In this experiment, the importance of the FYFP motif (SEQ ID NO: 2) in the human chemerin C15 peptide on anti-inflammatory activity was examined. The ability of the human chemerin C15 peptide […] (SEQ ID NO: 1) was compared to that of a substituted chemerin C15 peptide having the amino acid sequence […] (SEQ ID NO: 27), where the second phenylalanine in the peptide is modified to alanine. The experiment was performed as described in Example 1. 0.1 pM 0.5 pM and 1 pM concentrations of the C15 and C15 mutant peptides were tested. Cytokine expression was determined as described in Example 1.

The target in the next test is T1, ChemR23 (Homo sapiens, UniProt Q99788).
T1 sequence (Q99788 1-373): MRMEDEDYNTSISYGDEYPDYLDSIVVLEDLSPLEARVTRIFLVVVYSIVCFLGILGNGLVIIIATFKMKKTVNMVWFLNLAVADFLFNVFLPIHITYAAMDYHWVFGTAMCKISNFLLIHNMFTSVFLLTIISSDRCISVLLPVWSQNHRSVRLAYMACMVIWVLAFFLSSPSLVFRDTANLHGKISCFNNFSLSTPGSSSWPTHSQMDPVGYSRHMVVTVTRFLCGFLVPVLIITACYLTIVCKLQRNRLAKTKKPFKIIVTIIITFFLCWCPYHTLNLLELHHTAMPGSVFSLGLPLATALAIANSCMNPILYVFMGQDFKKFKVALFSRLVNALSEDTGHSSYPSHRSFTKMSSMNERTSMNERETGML
The test is described as follows: Hit Hunter cAMP Hunter assay, human ChemR23. Type of test: cell-based. The protocol: The DiscoveRx PathHunter™ eXpress GPCR activity assay was employed to test agonist and antagonist activities of the chemerin peptides against the GPCRs ChemR23 and GPR1. Two assay formats were tested, the PathHunter β-Arrestin assay and the Hit Hunter cAMP Hunter assay.
The protocol used was a standard protocol employed by DiscoveRx PathHunter™ profiling service. […] Once it was established that the cells were healthy and growing normally, cells were passaged from flasks using cell dissociation reagent buffer and seeded into white walled clear bottom 384-well microplates for compound profiling. For profiling, cells were seeded at a density of 10000 cells per well in a total volume of 20 μL and were allowed to adhere and recover overnight prior to compound addition. Cells were treated the following day using the protocols shown below. cAMP modulation was determined using the DiscoveRx HitHunter cAMP XS+ assay.
For profiling compound in agonist mode, the cells were incubated in the presence of compound at 37° C. for 30 minutes.
EC80 agonist concentration was determined directly from agonist dose curve.
Microplates were read following signal generation with a PerkinElmer Envision™ instrument for chemiluminescent signal detection.
Dose curves in the presence and absence of compound were plotted using GraphPad Prism or Activity Base.

Where [2] appears, read: Example 3, 0.1 pM 0.5 pM and 1 pM tested, FIG. 3.

Peptide text beside a SMILES is read from it. Where only a bound is given, the exact number is not on record here.

As to `C[C@H](N)C(=O)NCC(=O)N[C@@H](CCC(=O)O)C(=O)N[C@@H](CC(=O)O)C(=O)N1CCC[C@H]1C(=O)N[C@@H](Cc1c[nH]cn1)C(=O)N[C@@H](CO)C(=O)N[C@@H](Cc1ccccc1)C(=O)N[C@@H](Cc1ccc(O)cc1)C(=O)N[C@@H](Cc1ccccc1)C(=O)N1CCC[C@H]1C(=O)NCC(=O)N[C@@H](CCC(N)=O)C(=O)N[C@@H](Cc1ccccc1)C(=O)N[C@@H](C)C(=O)O` [C15 (human)] (H-AGEDPHSFYFPGQFA-OH; N-terminus and C-terminus assumed), the “inhibition of newly synthesized RANTES (difference between the 6 and 15 hour time points)” value in test [1] (1 pM) is recorded as “approximately 90%”. In addition, in test [1] (C15 peptide treatment), the “decrease in IL-10” value was about 25%. Besides, in test [1] (setting [2]), the “percent inhibition of RANTES expression” value was 47% and the “percent inhibition of TNFα expression” value turned out to be 61%. The “inhibition of cytokine production/secretion in vitro” value in test [1] (within 15 hours) is listed as 40-60%. Also, the IC50 (as a rule, the concentration needed to halve the response being measured) against ChemR23 was over 10 µM.
On to `C[C@H](N)C(=O)NCC(=O)N[C@@H](CCC(=O)O)C(=O)N[C@@H](CC(=O)O)C(=O)N1CCC[C@H]1C(=O)N[C@@H](Cc1c[nH]cn1)C(=O)N[C@@H](CO)C(=O)N[C@@H](Cc1ccccc1)C(=O)N[C@@H](Cc1ccc(O)cc1)C(=O)N[C@@H](Cc1ccccc1)C(=O)N1CCC[C@H]1C(=O)NCC(=O)N[C@@H](CCC(N)=O)C(=O)N[C@@H](Cc1ccccc1)C(=O)N[C@@H](C)C(=O)N[C@@H](Cc1ccccc1)C(=O)N[C@@H](CO)C(=O)O` [C17 (human)] (H-AGEDPHSFYFPGQFAFS-OH; N-terminus and C-terminus assumed), for which the “inhibition of cytokine production” value in test [1] (1 μM) is on record as “did not exhibit any significant inhibition”. In addition, the IC50 against ChemR23 is over 10 µM.
`CC(C)C[C@H](NC(=O)[C@H](Cc1ccccc1)NC(=O)[C@H](Cc1ccc(O)cc1)NC(=O)CNC(=O)[C@H](Cc1c[nH]cn1)NC(=O)[C@@H]1CCCN1C(=O)[C@H](CC(=O)O)NC(=O)[C@H](CCC(=O)O)NC(=O)CNC(=O)[C@H](C)N)C(=O)N1CCC[C@H]1C(=O)NCC(=O)N[C@@H](CCC(N)=O)C(=O)N[C@@H](Cc1ccccc1)C(=O)N[C@@H](C)C(=O)O` [mC15] (H-AGEDPHGYFLPGQFA-OH; N-terminus and C-terminus assumed): the IC50 at ChemR23 was over 10 µM.
